Several values for one entry are separate records, joined by “and”; a condition that tells them apart may be missing. Equal values may be shown once. Toxic doses and inconclusive results are not listed. Bridge positions count the residues as written; N and C are the ends. Peptide text beside a SMILES is read from it. I, II: the chains in the order shown.
Test system: P388 leukemia ip, CD2F1 mice, survival T/C
Assay: NCI In Vivo Anticancer Drug Screen. Data for tumor model P388 Leukemia (intraperitoneal) in CD2F1 (CDF1) mice
Conditions: endpoint: median survival time, higher = longer survival
How it was run: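 Mice carrying the transplanted tumor received test compound or vehicle. Survival was recorded in each group, and the value is the treated-group measurement divided by that of the vehicle-treated control group.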

[1] = dose: 50.0 mg/kg/injection, schedule: Q01DX005 (ip), vehicle: Klucel (hydroxypropylcellulose) (HPC)
[2] = dose: 100.0 mg/kg/injection, schedule: Q01DX005 (ip), vehicle: Klucel (hydroxypropylcellulose) (HPC)
[3] = dose: 200.0 mg/kg/injection, schedule: Q01DX005 (ip), vehicle: Klucel (hydroxypropylcellulose) (HPC)
[4] = dose: 50.0 mg/kg/injection, schedule: Q01DX009 (ip), vehicle: saline with Tween-80
[5] = dose: 100.0 mg/kg/injection, schedule: Q01DX009 (ip), vehicle: saline with Tween-80
[6] = dose: 200.0 mg/kg/injection, schedule: Q01DX009 (ip), vehicle: saline with Tween-80
[7] = dose: 50.0 mg/kg/injection, schedule: Q01DX005 (ip), vehicle: saline with Tween-80
[8] = dose: 100.0 mg/kg/injection, schedule: Q01DX005 (ip), vehicle: saline with Tween-80
[9] = dose: 200.0 mg/kg/injection, schedule: Q01DX005 (ip), vehicle: saline with Tween-80
[10] = dose: 100.0 mg/kg/injection, schedule: Q01DX001 (ip), vehicle: Klucel (hydroxypropylcellulose) (HPC)
[11] = dose: 200.0 mg/kg/injection, schedule: Q01DX001 (ip), vehicle: Klucel (hydroxypropylcellulose) (HPC)
[12] = dose: 400.0 mg/kg/injection, schedule: Q01DX001 (ip), vehicle: Klucel (hydroxypropylcellulose) (HPC)
[13] = dose: 6.25 mg/kg/injection, schedule: Q01DX009 (ip), vehicle: saline
[14] = dose: 12.5 mg/kg/injection, schedule: Q01DX009 (ip), vehicle: saline
[15] = dose: 50.0 mg/kg/injection, schedule: Q01DX009 (ip), vehicle: saline
[16] = dose: 100.0 mg/kg/injection, schedule: Q01DX009 (ip), vehicle: saline
[17] = dose: 25.0 mg/kg/injection, schedule: Q01DX001 (ip), vehicle: Klucel (hydroxypropylcellulose) (HPC)
[18] = dose: 50.0 mg/kg/injection, schedule: Q01DX001 (ip), vehicle: Klucel (hydroxypropylcellulose) (HPC)
[19] = dose: 25.0 mg/kg/injection, schedule: Q01DX009 (ip), vehicle: saline
[20] = dose: 200.0 mg/kg/injection, schedule: Q01DX009 (ip), vehicle: saline

CC(C)CC(NC(=O)C(N)CSSCC(N)C(=O)NC(CC(C)C)C(=O)O)C(=O)O (stereo not drawn) (I: H-Cys-Leu-OH / II: H-Cys-Leu-OH; disulfide I:1-II:1; configuration not given here)
T/C [1]: 106 % of control
T/C [2]: 113 % of control
T/C [3]: 92 % of control

CCCCCCCCCC[n+]1cccc(C(N)=O)c1
T/C (dose: 5.0 mg/kg/injection, schedule: Q01DX009 (ip), vehicle: saline with Tween-80): 100 % of control
T/C (dose: 10.0 mg/kg/injection, schedule: Q01DX009 (ip), vehicle: saline with Tween-80): 109 % of control
T/C (dose: 20.0 mg/kg/injection, schedule: Q01DX009 (ip), vehicle: saline with Tween-80): 113 % of control

COc1ccc2nc(-c3ccc(Cl)cc3)cc(C(=O)O)c2c1
T/C [1]: 99 % of control
T/C [2]: 100 % of control
T/C [3]: 100 % of control

COc1ccc(-n2c(=O)[nH]c3ccccc3c2=O)cc1
T/C [4]: 108 % of control
T/C [5]: 100 % of control
T/C [6]: 104 % of control

O=c1[nH][nH]c(=O)c2c1Nc1c(c(=O)[nH][nH]c1=O)C2c1ccncc1
T/C [7]: 103 % of control
T/C [8]: 108 % of control
T/C [9]: 96 % of control

Nc1n[nH]c(=O)n1N
T/C [10]: 106 % of control
T/C [11]: 100 % of control
T/C [12]: 107 % of control

O=C1NCN(c2ccccc2)C12CCNCC2
T/C (dose: 25.0 mg/kg/injection, schedule: Q04DX003 (ip), vehicle: saline sonified): 109 % of control
T/C (dose: 50.0 mg/kg/injection, schedule: Q04DX003 (ip), vehicle: saline sonified): 109 % of control
T/C (dose: 100.0 mg/kg/injection, schedule: Q04DX003 (ip), vehicle: saline sonified): 95 % of control

COC(=O)C1CC2CCCCC2CC1OC(C)=O (centres undefined)
T/C (dose: 25.0 mg/kg/injection, schedule: Q01DX009 (ip), vehicle: saline with Tween-80): 96 % of control
T/C [4]: 101 % of control and 111 % of control
T/C [5]: 106 % of control and 112 % of control and 121 % of control
T/C [6]: 99 % of control and 110 % of control and 121 % of control

CC1(C)CC(c2ccccc2)C(c2ccccc2)C(=O)O1 (centres undefined)
T/C (dose: 100.0 mg/kg/injection, schedule: Q04DX003 (ip), vehicle: Klucel (hydroxypropylcellulose) (HPC)): 93 % of control
T/C (dose: 200.0 mg/kg/injection, schedule: Q04DX003 (ip), vehicle: Klucel (hydroxypropylcellulose) (HPC)): 92 % of control

CCC[N+](CCC)=c1ccc2nc3c(C)cc(N(CC)CC)cc3sc-2c1
T/C (dose: 0.78 mg/kg/injection, schedule: Q01DX009 (ip), vehicle: saline): 108 % of control
T/C (dose: 1.56 mg/kg/injection, schedule: Q01DX009 (ip), vehicle: saline): 112 % of control
T/C (dose: 3.13 mg/kg/injection, schedule: Q01DX009 (ip), vehicle: saline): 113 % of control and 118 % of control
T/C [13]: 123 % of control
T/C [14]: 115 % of control

Cc1ncc2n1-c1ccc(Cl)cc1C(c1ccccc1F)=NC2
T/C [15]: 103 % of control
T/C [16]: 112 % of control

NC(=S)c1ccc(N=Cc2ccccn2)cc1
T/C [17]: 100 % of control
T/C [18]: 100 % of control
T/C [10]: 103 % of control and 106 % of control
T/C [11]: 102 % of control
T/C [12]: 105 % of control

O=C1C(c2ccccc2)C2NC(C1c1ccccc1)C([N+](=O)[O-])C=C2[N+](=O)[O-] (centres undefined)
T/C [17]: 94 % of control
T/C [18]: 90 % of control

CCc1nc(N)nc(N)c1-c1ccc(N2CC[N+](C)(C)CC2)cc1
T/C (dose: 0.24 mg/kg/injection, schedule: Q01DX005 (ip), vehicle: saline with Tween-80): 99 % of control
T/C (dose: 0.48 mg/kg/injection, schedule: Q01DX005 (ip), vehicle: saline with Tween-80): 101 % of control
T/C (dose: 0.94 mg/kg/injection, schedule: Q01DX005 (ip), vehicle: saline with Tween-80): 105 % of control
T/C (dose: 0.96 mg/kg/injection, schedule: Q01DX005 (ip), vehicle: saline with Tween-80): 119 % of control

COc1cccc2c1C(=O)c1c(O)c3c(c(O)c1C2=O)C[C@@](O)(C(C)O)C[C@@H]3OC1CC(NC(=O)C(F)(F)F)C(O)C(C)O1 (some centres undefined)
T/C (dose: 1.56 mg/kg/injection, schedule: Q01DX009 (ip), vehicle: water): 118 % of control
T/C (dose: 6.25 mg/kg/injection, schedule: Q01DX009 (ip), vehicle: water): 150 % of control
T/C (dose: 12.5 mg/kg/injection, schedule: Q01DX009 (ip), vehicle: water): 156 % of control and 169 % of control
T/C (dose: 25.0 mg/kg/injection, schedule: Q01DX009 (ip), vehicle: water): 181 % of control and 189 % of control

O=C(O)C1Cc2c([nH]c3ccccc23)C2CCC(=O)N12 (centres undefined)
T/C (dose: 25.0 mg/kg/injection, schedule: Q04DX003 (ip), vehicle: suspension in saline): 106 % of control
T/C (dose: 50.0 mg/kg/injection, schedule: Q04DX003 (ip), vehicle: suspension in saline): 96 % of control
T/C (dose: 100.0 mg/kg/injection, schedule: Q04DX003 (ip), vehicle: suspension in saline): 98 % of control
T/C (dose: 200.0 mg/kg/injection, schedule: Q04DX003 (ip), vehicle: suspension in saline): 98 % of control

CSc1nccnn1
T/C [13]: 109 % of control
T/C [14]: 115 % of control
T/C [19]: 108 % of control and 116 % of control
T/C [15]: 118 % of control
T/C [16]: 120 % of control

CCN(CC)C1CS(=O)(=O)OC(c2ccccc2)=C1C (centres undefined)
T/C [7]: 100 % of control
T/C [8]: 102 % of control
T/C [9]: 100 % of control

CC1=NN(c2cc(Cl)c(S(=O)(=O)O)cc2Cl)C(=O)C1N=Nc1ccc(S(=O)(=O)O)cc1 (centres undefined)
T/C [15]: 103 % of control
T/C [16]: 100 % of control
T/C [20]: 99 % of control

COC1C(/C=C/C(C)=O)OC2OC(C)(C)OC21 (centres undefined)
T/C [19]: 106 % of control
T/C [15]: 107 % of control and 112 % of control

O=CNC(NC=O)NC=O
T/C [19]: 109 % of control
T/C [15]: 97 % of control
T/C [16]: 105 % of control
T/C [20]: 104 % of control

c1onc2c1C1CC3CC(C1)CC2C3
T/C (dose: 50.0 mg/kg/injection, schedule: Q01DX009 (ip), vehicle: Klucel (hydroxypropylcellulose) (HPC)): 96 % of control
T/C (dose: 100.0 mg/kg/injection, schedule: Q01DX009 (ip), vehicle: Klucel (hydroxypropylcellulose) (HPC)): 89 % of control
T/C (dose: 200.0 mg/kg/injection, schedule: Q01DX009 (ip), vehicle: Klucel (hydroxypropylcellulose) (HPC)): 92 % of control

N=C(N)c1ccc(/C=C/c2ccc(C(=N)N)cc2)cc1
T/C (dose: 8.0 mg/kg/injection, schedule: Q01DX009 (ip), vehicle: saline with Tween-80): 119 % of control
T/C (dose: 16.0 mg/kg/injection, schedule: Q01DX009 (ip), vehicle: saline with Tween-80): 122 % of control and 124 % of control
T/C (dose: 32.0 mg/kg/injection, schedule: Q01DX009 (ip), vehicle: saline with Tween-80): 124 % of control
T/C (dose: 64.0 mg/kg/injection, schedule: Q01DX009 (ip), vehicle: Klucel (hydroxypropylcellulose) (HPC)): 177 % of control

O=NN(CCCl)C(=O)Oc1cc(Cl)c(Cl)cc1Cl
T/C [17]: 116 % of control
T/C [1]: 86 % of control
T/C (dose: 75.0 mg/kg/injection, schedule: Q01DX001 (ip), vehicle: Klucel (hydroxypropylcellulose) (HPC)): 154 % of control and 250 % of control
T/C [10]: 258 % of control

CCCCCCCCCCCCn1c2nc(=O)[nH]c(=O)c-2nc2ccccc21
T/C (dose: 3.12 mg/kg/injection, schedule: Q01DX005 (ip), vehicle: saline with Tween-80): 97 % of control
T/C (dose: 6.25 mg/kg/injection, schedule: Q01DX005 (ip), vehicle: saline with Tween-80): 97 % of control
T/C (dose: 12.5 mg/kg/injection, schedule: Q01DX005 (ip), vehicle: saline with Tween-80): 90 % of control
T/C [8]: 87 % of control
T/C [9]: 91 % of control

[Fe].[c-]1[c-][c-][c-](Cn2nnc3ccccc32)[c-]1.[c-]1[c-][c-][cH-][c-]1
T/C [4]: 105 % of control
T/C [5]: 102 % of control
T/C [6]: 95 % of control

O=C1c2ccccc2C(=O)N1c1ccc(Nc2nc(Nc3ccc(N4C(=O)c5ccccc5C4=O)cc3)nc(N(C3CCCCC3)C3CCCCC3)n2)cc1
T/C [7]: 94 % of control
T/C [8]: 87 % of control

CC1=N/C(=C\c2ccccc2Br)C(=O)O1
T/C (dose: 50.0 mg/kg/injection, schedule: Q01DX005 (ip), vehicle: saline): 114 % of control
T/C (dose: 100.0 mg/kg/injection, schedule: Q01DX005 (ip), vehicle: saline): 119 % of control
T/C (dose: 200.0 mg/kg/injection, schedule: Q01DX005 (ip), vehicle: saline): 119 % of control

— PubChem BioAssay AID330 (DTP/NCI, 2004)
